Measurements as given in article PMC12720774, “Detergents alter the stability and lipid binding properties of the CD1d immunoreceptor” (Protein Science : A Publication of the Protein Society, 2025).
Several values for one entry are separate records, joined by “and”; a condition that tells them apart may be missing. Equal values may be shown once. Entries after “also recorded” stand apart in the source; their conditions may differ. Read-outs that look alike come from different tables or passages of the source.

Experiments:
AF647‐labeled hCD1d [1] = target: T1, AF647‐labeled hCD1d (Homo sapiens, UniProt P15813+P61769); test: Microscale thermophoresis (MST) binding assay
T1 construct: TEV protease cleavage site ENLYFQS (C); BirA biotinylation site (C); His7 (C); made in house; host or cells: TurboCHO cells (GenScript)
T1 sequence (P61769+P15813 fused): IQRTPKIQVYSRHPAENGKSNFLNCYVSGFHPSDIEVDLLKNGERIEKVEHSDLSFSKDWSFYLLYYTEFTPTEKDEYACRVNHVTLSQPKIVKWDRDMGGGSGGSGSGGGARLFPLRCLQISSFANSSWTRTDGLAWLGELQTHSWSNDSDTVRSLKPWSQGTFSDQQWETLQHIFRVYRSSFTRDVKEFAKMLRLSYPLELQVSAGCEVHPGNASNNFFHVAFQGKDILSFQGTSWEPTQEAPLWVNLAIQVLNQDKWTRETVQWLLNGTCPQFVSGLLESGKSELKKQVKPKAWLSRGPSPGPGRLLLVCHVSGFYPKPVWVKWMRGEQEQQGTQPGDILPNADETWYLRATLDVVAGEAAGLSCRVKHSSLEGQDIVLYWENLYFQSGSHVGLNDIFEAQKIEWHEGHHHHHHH
Summary of the method: (§1)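 hCD1d was NHS-labeled with AF647 (~75% labeling) and held at 100 nM against rising detergent or 18:1 LPC in PBS pH 7.4. Samples were preincubated at 37°C overnight (~12 h) and read at 25°C with 20 s IR-on time. Data are mean ± SD, n = 3.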

AF647‐labeled hCD1d [2] = target: T2, AF647‐labeled hCD1d (Homo sapiens, UniProt P15813); test: Microscale thermophoresis (MST) binding assay
T2 construct: TEV protease cleavage site ENLYFQS (C); BirA biotinylation site (C); His7 (C); made in house; host or cells: TurboCHO cells (GenScript)
T2 sequence (P15813 whole entry, looked up): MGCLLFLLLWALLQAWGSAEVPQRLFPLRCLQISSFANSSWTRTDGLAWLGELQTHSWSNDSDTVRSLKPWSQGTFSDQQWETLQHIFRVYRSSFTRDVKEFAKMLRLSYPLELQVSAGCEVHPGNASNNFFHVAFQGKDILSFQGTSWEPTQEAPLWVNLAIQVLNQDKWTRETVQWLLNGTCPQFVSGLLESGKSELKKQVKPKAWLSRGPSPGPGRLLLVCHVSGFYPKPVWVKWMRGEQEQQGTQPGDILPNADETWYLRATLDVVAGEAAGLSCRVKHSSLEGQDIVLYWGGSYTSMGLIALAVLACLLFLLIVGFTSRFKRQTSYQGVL
Summary of the method: as §1

[3] = target: T3, recombinant human CD1d ectodomain/β2m complex (hCD1d) (Homo sapiens, UniProt P15813+P61769); test: Intrinsic tryptophan fluorescence (ITF) binding assay
T3 construct: TEV protease cleavage site ENLYFQS (C); BirA biotinylation site (C); His7 (C); made in house; host or cells: TurboCHO cells (GenScript)
T3 sequence (P61769+P15813 fused): as the sequence (P61769+P15813 fused) above
Description: (§2) For ITF assays, the concentration of hCD1d was kept constant, and intrinsic Trp fluorescence (excitation at 285 nm, emission at 335 nm) was measured as a function of increasing detergent concentration (Fossum et al., [2023]) (Figure S2). The change in relative fluorescence intensity (F − F 0/F 0) provides an indication of binding. […] This was due to limited detergent solubility and decreased hCD1d stability in the presence of a large excess of detergent (see below). […] SDS was the exception, for which Trp fluorescence of hCD1d decreased with added detergent. This could indicate a unique conformational change or destabilization of the protein.
(§3) ITF spectra were recorded from 300 to 500 nm using a Horiba FL3‐21 Fluorometer with the excitation wavelength of 285 nm and excitation/emission slits of 6.2 nm. Fluorescence spectra of 50 to 100 nM hCD1d were acquired in the absence and presence of detergents in 1X PBS pH 7.4 at 25°C. Prior to data acquisition, hCD1d and detergent or lipid samples were incubated at 37°C overnight (~12 h) to simulate in vitro and in vivo loading conditions. […] For 18:1 LPC experiments, fluorescence spectra of 100 nM hCD1d were acquired in the absence and presence of 18:1 LPC in 1X PBS pH 7.4 at 25°C. […] For all ITF experiments, the change in fluorescence signal (F − F 0/F 0) was determined at 335 nm. Three replicates were performed, and data are presented as the mean ± standard deviation (n = 3). K D values were fitted with non‐linear regression in GraphPad Prism v10.1.

[4] = target: T4, recombinant human CD1d ectodomain/β2m complex (hCD1d) (Homo sapiens, UniProt P15813); test: as above
T4 construct: TEV protease cleavage site ENLYFQS (C); BirA biotinylation site (C); His7 (C); made in house; host or cells: TurboCHO cells (GenScript)
T4 sequence (P15813 whole entry, looked up, the tested form may be a part, one chain of several): as the sequence (P15813 whole entry, looked up) above
Description: as §2, §3

[5] = approximate, cited from earlier work
[6] = 0.001 M detergent, 100 nM AF647‐hCD1d

Compound: CCCCCCCCCCCCCCCC[N+](C)(C)C [CTAB, hexadecyltrimethylammonium bromide]
- Fnorm (rep 1-3) (AF647‐labeled hCD1d [1]; 4.88281e-7 M detergent): 812.075 ‰ and 810.216 ‰ and 807.19 ‰
- Fnorm (rep 1-3) (AF647‐labeled hCD1d [1]; 9.76563e-7 M detergent): 814.18 ‰ and 810.332 ‰ and 807.136 ‰
- Fnorm (rep 1-3) (AF647‐labeled hCD1d [1]; 1.95313e-6 M detergent): 814.445 ‰ and 813.166 ‰ and 810.178 ‰
- Fnorm (rep 1-3) (AF647‐labeled hCD1d [1]; 3.90625e-6 M detergent): 815.986 ‰ and 818.175 ‰ and 815.532 ‰
- Fnorm (rep 1-3) (AF647‐labeled hCD1d [1]; 7.8125e-6 M detergent): 824.731 ‰ and 823.149 ‰ and 822.329 ‰
- Fnorm (rep 1-3) (AF647‐labeled hCD1d [1]; 1.5625e-5 M detergent): 835 ‰ and 828.362 ‰ and 831.779 ‰
- Fnorm (rep 1-3) (AF647‐labeled hCD1d [1]; 3.125e-5 M detergent): 849.376 ‰ and 847.531 ‰ and 847.477 ‰
- Fnorm (rep 1-3) (AF647‐labeled hCD1d [1]; 6.25e-5 M detergent): 858.509 ‰ and 854.12 ‰ and 851.197 ‰
- Fnorm (rep 1-3) (AF647‐labeled hCD1d [1]; 0.000125 M detergent): 844.143 ‰ and 841.907 ‰ and 839.82 ‰
- Fnorm (rep 1-3) (AF647‐labeled hCD1d [1]; 0.00025 M detergent): 844.455 ‰ and 843.492 ‰ and 841.952 ‰
- Fnorm (rep 1-3) (AF647‐labeled hCD1d [1]; 0.0005 M detergent): 845.737 ‰ and 843.294 ‰ and 845.557 ‰
- Fnorm (rep 1-3) (AF647‐labeled hCD1d [1]; [6]): 845.54 ‰ and 843.477 ‰ and 843.19 ‰
- Kd (AF647‐labeled hCD1d [2]; K D (MST), detergent with 100 nM AF647‐labeled hCD1d, 25°C, apparent): 10.9 ± 1.2 µM
- Kd (AF647‐labeled hCD1d [2]; MST - Kd (uM) average, Figure 5B, detergent binding to hCD1d): 10.9 µM
- F-F0/F0 (rep 1-3) ([3]; 3.0518e-8 M detergent): 0
- F-F0/F0 (rep 1-3) ([3]; 3.125e-5 M detergent): 0.613 and 0.517 and 0.672
- F-F0/F0 (rep 1-3) ([3]; 6.25e-5 M detergent): 0.966 and 1.08 and 1.22
- F-F0/F0 (rep 1-3) ([3]; 0.000125 M detergent): 1.45 and 1.3 and 1.29
- F-F0/F0 (rep 1-3) ([3]; 0.00025 M detergent): 1.44 and 1.52 and 1.46
- F-F0/F0 (rep 1-3) ([3]; 0.0005 M detergent): 1.55 and 1.65 and 1.44
- F-F0/F0 (rep 1-3) ([3]; 0.001 M detergent, 100 nM hCD1d): 1.83 and 1.56 and 1.71
- Kd ([4]; ITF - Kd (uM) average, Figure 5A, detergent binding to hCD1d): 41.5 µM
- Kd ([4]; K D (ITF), detergent with 100 nM hCD1d, 25°C, 1X PBS pH 7.4, apparent): 41.5 ± 6.5 µM
- CMC ([5]; ref Sigma Aldrich catalogue): 920 µM
- CMC ([5]; weight/volume, ref Sigma Aldrich catalogue): 0.033%

Compound: CCCCCCCCO[C@@H]1O[C@H](CO)[C@@H](O)[C@H](O)[C@H]1O [ODG, n‐octyl‐β‐D‐glucopyranoside]
- Fnorm (rep 1-3) (AF647‐labeled hCD1d [1]; 9.76563e-7 M detergent): 842.328 ‰ and 845.864 ‰ and 848.262 ‰
- Fnorm (rep 1-3) (AF647‐labeled hCD1d [1]; 1.95313e-6 M detergent): 843.26 ‰ and 846.856 ‰ and 850.006 ‰
- Fnorm (rep 1-3) (AF647‐labeled hCD1d [1]; 3.90625e-6 M detergent): 843.026 ‰ and 843.822 ‰ and 848.605 ‰
- Fnorm (rep 1-3) (AF647‐labeled hCD1d [1]; 7.8125e-6 M detergent): 843.431 ‰ and 845.217 ‰ and 850.155 ‰
- Fnorm (rep 1-3) (AF647‐labeled hCD1d [1]; 1.5625e-5 M detergent): 843.398 ‰ and 846.496 ‰ and 848.167 ‰
- Fnorm (rep 1-3) (AF647‐labeled hCD1d [1]; 3.125e-5 M detergent): 843.251 ‰ and 846.684 ‰ and 848.174 ‰
- Fnorm (rep 1-3) (AF647‐labeled hCD1d [1]; 6.25e-5 M detergent): 844.533 ‰ and 847.002 ‰ and 847.612 ‰
- Fnorm (rep 1-3) (AF647‐labeled hCD1d [1]; 0.000125 M detergent): 844.648 ‰ and 847.89 ‰ and 849.866 ‰
- Fnorm (rep 1-3) (AF647‐labeled hCD1d [1]; 0.00025 M detergent): 846.571 ‰ and 844.204 ‰ and 849.145 ‰
- Fnorm (rep 1-3) (AF647‐labeled hCD1d [1]; 0.0005 M detergent): 846.14 ‰ and 848.026 ‰ and 848.57 ‰
- Fnorm (rep 1-3) (AF647‐labeled hCD1d [1]; [6]): 845.727 ‰ and 847.773 ‰ and 849.553 ‰
- Fnorm (rep 1-3) (AF647‐labeled hCD1d [1]; 0.002 M detergent): 847.311 ‰ and 851.671 ‰ and 850.904 ‰
- Fnorm (rep 1-3) (AF647‐labeled hCD1d [1]; 0.004 M detergent): 852.082 ‰ and 853.968 ‰ and 856.97 ‰
- Fnorm (rep 1-3) (AF647‐labeled hCD1d [1]; 0.008 M detergent): 864.475 ‰ and 866.313 ‰ and 870.655 ‰
- Fnorm (rep 1-3) (AF647‐labeled hCD1d [1]; 0.032 M detergent): 877.078 ‰ and 878.262 ‰ and 882.232 ‰
- Kd (AF647‐labeled hCD1d [2]; Figure 5B, detergent binding to hCD1d, read-out: MST - Kd (uM) average): 6580 µM
- Kd (AF647‐labeled hCD1d [2]; detergent with 100 nM AF647‐labeled hCD1d, 25°C, apparent, read-out: K D (MST)): 6580 ± 186 µM
- binding to hCD1d by ITF (in words) [3]: No significant binding; also recorded: minimal concentration‐dependent fluorescence changes
- F-F0/F0 (rep 1-3) ([3]; Concentration (M) 0.000977): 0
- Kd ([4]; detergent with 100 nM hCD1d, 25°C, 1X PBS pH 7.4, apparent, read-out: K D (ITF)): > 10000 µM
- CMC ([5]; ref Anatrace catalogue): 18,000 μM
- CMC ([5]; weight/volume, ref Anatrace catalogue): 0.53%
